Experimental data taken from publication PMC6298744 (Biochemical pharmacology, 2018).
Counter-ions that a name gives are not always drawn.

Molecular target: T1, 5-HT2A receptor (Homo sapiens, UniProt P28223)
Experiment: cell-based
Type: cell-based
Settings: normalized to the maximal stimulation by 5-HT

T1 sequence (P28223 whole entry): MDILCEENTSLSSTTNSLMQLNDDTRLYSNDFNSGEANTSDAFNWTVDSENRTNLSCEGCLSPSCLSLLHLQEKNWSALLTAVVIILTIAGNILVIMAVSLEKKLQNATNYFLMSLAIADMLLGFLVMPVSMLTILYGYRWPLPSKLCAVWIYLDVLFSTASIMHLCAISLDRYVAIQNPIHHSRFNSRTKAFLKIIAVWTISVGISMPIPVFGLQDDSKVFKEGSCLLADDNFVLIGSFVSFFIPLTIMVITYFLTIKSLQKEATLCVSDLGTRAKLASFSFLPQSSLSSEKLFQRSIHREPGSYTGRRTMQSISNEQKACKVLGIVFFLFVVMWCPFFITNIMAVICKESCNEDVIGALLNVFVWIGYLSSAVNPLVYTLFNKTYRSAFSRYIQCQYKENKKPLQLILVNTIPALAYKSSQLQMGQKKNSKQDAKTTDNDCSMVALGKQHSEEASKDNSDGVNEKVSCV

| SMILES | % maximum stimulation, 5-HT2A stimulation of IP-1 formation |
| --- | --- |
| COc1cc([N+](=O)[O-])c(OC)cc1CCNCc1ccccc1OC [25N-NBOMe] | 87.9 ± 3.4% |

Same assay, conditions: ratio of EC50 values

| SMILES | Selectivity (functional ratios) 5-HT2A: 5-HT1A | Selectivity (functional ratios) 5-HT2A: 5-HT2B | Selectivity (functional ratios) 5-HT2A: 5-HT2C |
| --- | --- | --- | --- |
| COc1cc([N+](=O)[O-])c(OC)cc1CCNCc1ccccc1OC [25N-NBOMe] | 9400 | 92 | 2.6 |

Same assay, conditions: read-out: EC50, 5-HT2A stimulation of IP-1 formation; mean ± sem

| SMILES | EC50 |
| --- | --- |
| COc1cc([N+](=O)[O-])c(OC)cc1CCNCc1ccccc1OC [25N-NBOMe] | 0.00051 ± 0.00019 µM |

Molecular target: T2, hDAT (Homo sapiens, UniProt Q01959)
T2 sequence (Q01959 whole entry): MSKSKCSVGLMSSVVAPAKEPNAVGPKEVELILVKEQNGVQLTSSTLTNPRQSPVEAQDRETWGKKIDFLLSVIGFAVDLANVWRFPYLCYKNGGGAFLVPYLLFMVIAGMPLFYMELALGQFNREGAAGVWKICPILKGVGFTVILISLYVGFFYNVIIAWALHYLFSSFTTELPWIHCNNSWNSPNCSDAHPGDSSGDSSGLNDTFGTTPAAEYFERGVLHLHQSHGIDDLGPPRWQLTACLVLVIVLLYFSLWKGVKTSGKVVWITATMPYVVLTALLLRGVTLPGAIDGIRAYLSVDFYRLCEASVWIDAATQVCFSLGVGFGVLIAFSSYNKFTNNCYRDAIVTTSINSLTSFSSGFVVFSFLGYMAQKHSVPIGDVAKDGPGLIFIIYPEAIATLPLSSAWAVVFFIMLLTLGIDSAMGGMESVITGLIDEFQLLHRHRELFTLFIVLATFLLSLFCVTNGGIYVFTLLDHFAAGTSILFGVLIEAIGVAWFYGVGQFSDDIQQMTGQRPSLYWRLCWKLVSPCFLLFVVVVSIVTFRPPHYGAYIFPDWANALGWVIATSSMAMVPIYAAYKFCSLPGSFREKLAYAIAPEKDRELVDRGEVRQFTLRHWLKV
Experiment: Inhibition of [^3H]DA uptake by HEK-hDAT cells
Type: cell-based
Settings: not given

| SMILES | IC50 |
| --- | --- |
| NCCc1c[nH]c2ccc(O)cc12 [5-HT, Serotonin hydrochloride, reference compound] | 3.36 ± 0.32 µM |

Molecular target: T3, hNET (Homo sapiens, UniProt P23975)
T3 sequence (P23975 whole entry): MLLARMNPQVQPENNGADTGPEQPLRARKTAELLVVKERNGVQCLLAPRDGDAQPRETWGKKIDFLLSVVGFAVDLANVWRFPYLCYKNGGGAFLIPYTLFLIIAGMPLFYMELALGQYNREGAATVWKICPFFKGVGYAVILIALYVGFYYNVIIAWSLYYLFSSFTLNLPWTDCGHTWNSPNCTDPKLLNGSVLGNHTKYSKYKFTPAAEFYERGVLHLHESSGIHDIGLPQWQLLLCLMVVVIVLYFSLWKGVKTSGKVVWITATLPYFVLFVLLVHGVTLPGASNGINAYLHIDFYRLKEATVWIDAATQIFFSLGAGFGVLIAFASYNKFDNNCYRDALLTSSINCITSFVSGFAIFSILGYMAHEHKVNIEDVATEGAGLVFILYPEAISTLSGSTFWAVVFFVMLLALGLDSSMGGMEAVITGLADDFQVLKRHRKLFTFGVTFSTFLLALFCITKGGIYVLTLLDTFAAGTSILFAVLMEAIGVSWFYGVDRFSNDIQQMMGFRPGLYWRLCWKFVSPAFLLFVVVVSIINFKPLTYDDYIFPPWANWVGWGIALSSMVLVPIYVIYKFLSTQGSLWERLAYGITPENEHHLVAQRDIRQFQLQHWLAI
Experiment: Release of preloaded [^3H]NE from HEK-hNET cells
Type: cell-based
Settings: read-out: Drug-induced release of [^3H]neurotransmitter EC50, hNET [^3H]NE; mean ± sem; HEK-hNET

| SMILES | EC50 |
| --- | --- |
| COc1cc([N+](=O)[O-])c(OC)cc1CCNCc1ccccc1OC [25N-NBOMe] | > 38 µM |
| CN[C@@H](C)Cc1ccccc1 [METH, (S+)methamphetamine, reference compound] | 0.152 ± 0.056 µM |

Same assay, conditions: relative to maximum release induced by METH (0.3–1 μM)

| SMILES | % maximum release, hNET [^3H]NE |
| --- | --- |
| COc1cc([N+](=O)[O-])c(OC)cc1CCNCc1ccccc1OC [25N-NBOMe] | 25 ± 15% |
| CN[C@@H](C)Cc1ccccc1 [METH, (S+)methamphetamine, reference compound] | 106.7 ± 3.3% |

Molecular target: T2, hDAT
Experiment: Inhibition of [^125I]RTI-55 binding to hDAT
Settings: not given

| SMILES | Ki |
| --- | --- |
| NCCc1c[nH]c2ccc(O)cc12 [5-HT, Serotonin hydrochloride, reference compound] | 375 ± 83 µM |

Same assay, conditions: read-out: Inhibition of [^125I]RTI-55 binding Ki, hDAT; mean ± sem; HEK-hDAT

| SMILES | Ki |
| --- | --- |
| COc1cc([N+](=O)[O-])c(OC)cc1CCNCc1ccccc1OC [25N-NBOMe] | 37.9 ± 4.6 µM |

Molecular target: T3, hNET
Experiment: biochemical
Type: binding
Settings: not given

| SMILES | Ki |
| --- | --- |
| NCCc1c[nH]c2ccc(O)cc12 [5-HT, Serotonin hydrochloride, reference compound] | 392 ± 10 µM |
| OC1(c2ccc(Cl)cc2)c2ccccc2C2=NCCN21 (stereo not drawn) [Mazindol, reference compound] | 0.0116 ± 0.0035 µM |

Same assay, conditions: read-out: Inhibition of [^125I]RTI-55 binding Ki, hNET; mean ± sem; HEK-hNET

| SMILES | Ki |
| --- | --- |
| COc1cc([N+](=O)[O-])c(OC)cc1CCNCc1ccccc1OC [25N-NBOMe] | 11.3 ± 3.5 µM |

Test system: not given
Experiment: not given
Settings: taken hours after ingestion; cited from earlier work

| SMILES | Human blood concentration |
| --- | --- |
| COc1cc(CCNCc2ccccc2OC)c(OC)cc1Cl [25C-NBOMe] | 2.80 ng/mL |

Molecular target: 5-HT2B receptor (Homo sapiens, UniProt P41595)
Sequence (P41595 whole entry): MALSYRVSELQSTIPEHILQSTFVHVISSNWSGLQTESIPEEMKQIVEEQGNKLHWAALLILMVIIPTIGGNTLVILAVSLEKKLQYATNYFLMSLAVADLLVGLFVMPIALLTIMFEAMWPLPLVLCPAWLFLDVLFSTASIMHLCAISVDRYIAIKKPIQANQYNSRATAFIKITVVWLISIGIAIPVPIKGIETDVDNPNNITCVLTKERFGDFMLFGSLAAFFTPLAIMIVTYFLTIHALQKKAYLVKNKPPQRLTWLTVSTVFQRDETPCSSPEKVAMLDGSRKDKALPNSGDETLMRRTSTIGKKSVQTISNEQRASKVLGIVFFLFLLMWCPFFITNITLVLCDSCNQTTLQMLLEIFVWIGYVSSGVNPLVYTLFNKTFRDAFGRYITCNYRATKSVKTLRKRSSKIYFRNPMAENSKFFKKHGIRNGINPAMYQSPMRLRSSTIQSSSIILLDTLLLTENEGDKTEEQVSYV
Experiment: 5-HT2B receptor inositol monophosphate
Type: cell-based
Settings: normalized to the maximal stimulation by 5-HT

| SMILES | % maximum stimulation, 5-HT2B stimulation of IP-1 formation |
| --- | --- |
| COc1cc([N+](=O)[O-])c(OC)cc1CCNCc1ccccc1OC [25N-NBOMe] | 57.6 ± 8.6% |

Same assay, conditions: read-out: EC50, 5-HT2B stimulation of IP-1 formation; mean ± sem

| SMILES | EC50 |
| --- | --- |
| COc1cc([N+](=O)[O-])c(OC)cc1CCNCc1ccccc1OC [25N-NBOMe] | 0.047 ± 0.011 µM |

Molecular target: T4, human 5-HT1A receptor (Homo sapiens, UniProt P08908)
T4 sequence (P08908 1-422): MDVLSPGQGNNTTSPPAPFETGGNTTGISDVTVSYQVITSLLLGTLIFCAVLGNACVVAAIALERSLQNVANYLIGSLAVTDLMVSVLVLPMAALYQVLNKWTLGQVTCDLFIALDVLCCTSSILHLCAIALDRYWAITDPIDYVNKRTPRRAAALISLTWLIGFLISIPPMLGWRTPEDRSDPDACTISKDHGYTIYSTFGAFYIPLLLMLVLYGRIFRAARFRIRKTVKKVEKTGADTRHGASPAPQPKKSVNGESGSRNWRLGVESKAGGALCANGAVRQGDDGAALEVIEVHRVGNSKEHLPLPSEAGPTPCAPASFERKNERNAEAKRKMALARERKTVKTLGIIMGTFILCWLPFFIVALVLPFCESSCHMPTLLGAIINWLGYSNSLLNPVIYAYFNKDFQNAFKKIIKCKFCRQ
Experiment: 5-HT1A receptor [^3H]8-OH-DPAT radioligand binding
Settings: read-out: Inhibition of radioligand binding Ki, 5-HT1A [^3H]8OH-DPAT; mean ± sem; recombinant human 5-HT1A in HEK cells; agonist radioligand

| SMILES | Ki |
| --- | --- |
| COc1cc([N+](=O)[O-])c(OC)cc1CCNCc1ccccc1OC [25N-NBOMe] | 2.26 ± 0.23 µM |

Molecular target: T3, hNET
Experiment: cell-based
Settings: not given

| SMILES | IC50 |
| --- | --- |
| NCCc1c[nH]c2ccc(O)cc12 [5-HT, Serotonin hydrochloride, reference compound] | 7.2 ± 2.5 µM |
| OC1(c2ccc(Cl)cc2)c2ccccc2C2=NCCN21 (stereo not drawn) [Mazindol, reference compound] | 0.0011 ± 0.0003 µM |

Molecular target: T5, hSERT (Homo sapiens, UniProt P31645)
T5 sequence (P31645 whole entry): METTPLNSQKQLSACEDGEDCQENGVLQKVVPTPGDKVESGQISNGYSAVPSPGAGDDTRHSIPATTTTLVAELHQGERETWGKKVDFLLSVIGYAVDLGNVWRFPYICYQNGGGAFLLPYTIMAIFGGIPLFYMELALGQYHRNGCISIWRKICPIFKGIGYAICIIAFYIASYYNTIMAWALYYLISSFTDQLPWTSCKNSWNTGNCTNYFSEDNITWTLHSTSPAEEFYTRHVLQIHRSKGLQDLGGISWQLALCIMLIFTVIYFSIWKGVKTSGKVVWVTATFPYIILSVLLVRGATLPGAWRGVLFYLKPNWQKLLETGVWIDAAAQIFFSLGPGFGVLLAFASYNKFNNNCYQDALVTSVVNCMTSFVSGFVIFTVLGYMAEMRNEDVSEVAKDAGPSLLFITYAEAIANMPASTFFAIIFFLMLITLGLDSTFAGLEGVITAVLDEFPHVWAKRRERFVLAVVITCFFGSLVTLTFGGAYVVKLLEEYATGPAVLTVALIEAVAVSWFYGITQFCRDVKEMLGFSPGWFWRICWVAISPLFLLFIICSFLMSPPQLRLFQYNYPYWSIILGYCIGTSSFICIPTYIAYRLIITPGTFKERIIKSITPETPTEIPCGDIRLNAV
Experiment: Inhibition of [^3H]5-HT uptake by HEK-hSERT cells
Type: cell-based
Settings: not given

| SMILES | IC50 |
| --- | --- |
| OC1(c2ccc(Cl)cc2)c2ccccc2C2=NCCN21 (stereo not drawn) [Mazindol, reference compound] | 0.069 ± 0.012 µM |

Molecular target: T4, human 5-HT1A receptor
Experiment: 5-HT1A receptor [^35S]GTPγS binding stimulation
Type: biochemical
Settings: normalized to the maximal stimulation by 5-HT

| SMILES | % maximum stimulation, 5-HT1A stimulation of [^35S]GTPγS binding |
| --- | --- |
| COc1cc([N+](=O)[O-])c(OC)cc1CCNCc1ccccc1OC [25N-NBOMe] | 35.6 ± 6.6% |

Same assay, conditions: read-out: EC50, 5-HT1A stimulation of [^35S]GTPγS binding; mean ± sem

| SMILES | EC50 |
| --- | --- |
| COc1cc([N+](=O)[O-])c(OC)cc1CCNCc1ccccc1OC [25N-NBOMe] | 4.8 ± 1.8 µM |

Molecular target: T2, hDAT
Experiment: Release of preloaded [^3H]DA from HEK-hDAT cells
Type: cell-based
Settings: read-out: Drug-induced release of [^3H]neurotransmitter EC50, hDAT [^3H]DA; mean ± sem; HEK-hDAT

| SMILES | EC50 |
| --- | --- |
| COc1cc([N+](=O)[O-])c(OC)cc1CCNCc1ccccc1OC [25N-NBOMe] | > 100 µM |
| CN[C@@H](C)Cc1ccccc1 [METH, (S+)methamphetamine, reference compound] | 0.43 ± 0.15 µM |

Same assay, conditions: relative to maximum release induced by METH (1–10 μM)

| SMILES | % maximum release, hDAT [^3H]DA |
| --- | --- |
| COc1cc([N+](=O)[O-])c(OC)cc1CCNCc1ccccc1OC [25N-NBOMe] | −0.89 ± 0.91% |
| CN[C@@H](C)Cc1ccccc1 [METH, (S+)methamphetamine, reference compound] | 104.1 ± 1.3% |

Molecular target: T6, 5-HT2C receptor (Homo sapiens, UniProt P28335)
T6 sequence (P28335 33-458): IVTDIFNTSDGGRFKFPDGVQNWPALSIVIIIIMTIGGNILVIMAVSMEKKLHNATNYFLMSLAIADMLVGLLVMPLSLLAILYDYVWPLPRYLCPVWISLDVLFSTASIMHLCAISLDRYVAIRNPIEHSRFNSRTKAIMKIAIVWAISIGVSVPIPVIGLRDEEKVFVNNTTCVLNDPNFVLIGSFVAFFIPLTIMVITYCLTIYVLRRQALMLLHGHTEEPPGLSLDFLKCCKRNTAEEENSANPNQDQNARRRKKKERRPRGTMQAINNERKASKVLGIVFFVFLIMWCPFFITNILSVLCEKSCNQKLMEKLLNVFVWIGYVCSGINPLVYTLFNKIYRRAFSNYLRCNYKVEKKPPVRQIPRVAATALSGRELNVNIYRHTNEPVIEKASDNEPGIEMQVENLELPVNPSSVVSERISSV
Experiment: cell-based
Settings: normalized to the maximal stimulation by 5-HT

| SMILES | % maximum stimulation, 5-HT2C stimulation of IP-1 formation |
| --- | --- |
| COc1cc([N+](=O)[O-])c(OC)cc1CCNCc1ccccc1OC [25N-NBOMe] | 99.4 ± 0.4% |

Same assay, conditions: read-out: EC50, 5-HT2C stimulation of IP-1 formation; mean ± sem

| SMILES | EC50 |
| --- | --- |
| COc1cc([N+](=O)[O-])c(OC)cc1CCNCc1ccccc1OC [25N-NBOMe] | 0.00132 ± 0.00027 µM |

Molecular target: T5, hSERT
Experiment: Release of preloaded [^3H]5-HT from HEK-hSERT cells
Type: cell-based
Settings: read-out: Drug-induced release of [^3H]neurotransmitter EC50, hSERT [^3H]5-HT; mean ± sem; HEK-hSERT

| SMILES | EC50 |
| --- | --- |
| COc1cc([N+](=O)[O-])c(OC)cc1CCNCc1ccccc1OC [25N-NBOMe] | > 100 µM |
| CN[C@@H](C)Cc1ccccc1 [METH, (S+)methamphetamine, reference compound] | 27.5 ± 7 µM |

Same assay, conditions: relative to maximum release induced by METH (0.3–1 mM)

| SMILES | % maximum release, hSERT [^3H]5-HT |
| --- | --- |
| COc1cc([N+](=O)[O-])c(OC)cc1CCNCc1ccccc1OC [25N-NBOMe] | −0.25 ± 0.54% |
| CN[C@@H](C)Cc1ccccc1 [METH, (S+)methamphetamine, reference compound] | 104.9 ± 6.8% |

Molecular target: T1, 5-HT2A receptor
Experiment: biochemical
Type: binding
Settings: ratio of Ki values

| SMILES | Selectivity (binding ratios) 5-HT2A : 5-HT1A | Selectivity (binding ratios) 5-HT2A : 5-HT2B | Selectivity (binding ratios) 5-HT2A : 5-HT2C |
| --- | --- | --- | --- |
| COc1cc([N+](=O)[O-])c(OC)cc1CCNCc1ccccc1OC [25N-NBOMe] | 15700 | 60 | 7.4 |

Molecular target: T5, hSERT
Experiment: Inhibition of [^125I]RTI-55 binding to hSERT
Settings: not given

| SMILES | Ki |
| --- | --- |
| OC1(c2ccc(Cl)cc2)c2ccccc2C2=NCCN21 (stereo not drawn) [Mazindol, reference compound] | 0.127 ± 0.039 µM |

Same assay, conditions: read-out: Inhibition of [^125I]RTI-55 binding Ki, hSERT; mean ± sem; HEK-hSERT

| SMILES | Ki |
| --- | --- |
| COc1cc([N+](=O)[O-])c(OC)cc1CCNCc1ccccc1OC [25N-NBOMe] | 5.81 ± 0.9 µM |
